Converted amounts (≈) assume the structure as drawn. Where two headings read alike, the source gives them in different places. Where a SMILES comes first, the peptide text is derived from it. The star is where a group is joined. Palmitoyl = CCCCCCCCCCCCCCCC(=O)*; Myristoyl = CCCCCCCCCCCCCC(=O)*; Lauroyl = CCCCCCCCCCCC(=O)*
Assays:
Type in all cases: cell-based
[1] = tested on: Aspergillus brasiliensis (ATCC 16404); conditions: ATCC 16404, 48 h
Summary of the method: (§1)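 Lowest lipopeptide concentration (μg/mL) with no observable growth gave the MIC, alongside MBC/MFC, by CLSI microbroth dilution. Fungi: Sabouraud dextrose broth, 10^3 cfu/mL start, 25°C for 48 h; bacteria: MH broth, 10^5 cfu/mL, 37°C for 18 h. Run in triplicate, three separate days.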

[2] = tested on: Bacillus subtilis (ATCC 6633); conditions: for MIC Bacillus subtillis: ATCC 6633, 18 h; for MBC Bacillus subtillis: ATCC 6633, 24 h
Summary of the method: as §1

[3] = tested on: Candida albicans (ATCC 10231); conditions: ATCC 10231, 48 h
Summary of the method: as §1

[4] = tested on: Candida tropicalis (PCM 2681); conditions: PCM 2681, 48 h
Summary of the method: as §1

[5] = tested on: Enterococcus faecalis (ATCC 29212); conditions: for MBC Enterococcus fecalis, lipopeptides without TFA counter ion / MIC Enterococcus fecalis / MIC Enterococcus fecalis, lipopeptides without TFA counter ion: ATCC 29212, 18 h; for MBC Enterococcus fecalis: ATCC 29212, 24 h
Summary of the method: as §1

[6] = tested on: Escherichia coli (ATCC 25922); conditions: for MBC Escherichia coli, lipopeptides without TFA counter ion / MIC Escherichia coli / MIC Escherichia coli, lipopeptides without TFA counter ion: ATCC 25922, 18 h; for MBC Escherichia coli: ATCC 25922, 24 h
Summary of the method: as §1

[7] = tested on: Klebsiella pneumoniae (ATCC 700603); conditions: for MBC Klebsiella pneumoniae, lipopeptides without TFA counter ion / MIC Klebsiella pneumoniae / MIC Klebsiella pneumoniae, lipopeptides without TFA counter ion: ATCC 700603, 18 h; for MBC Klebsiella pneumoniae: ATCC 700603, 24 h
Summary of the method: as §1

[8] = tested on: Proteus vulgaris (PCM 2668); conditions: for MIC Proteus vulgaris: 18 h
Summary of the method: as §1

[9] = tested on: Pseudomonas aeruginosa (ATCC 9027); conditions: ATCC 9027, 18 h
Summary of the method: as §1

[10] = tested on: Staphylococcus aureus (ATCC 25923); conditions: for MBC Staphylococcus aureus, lipopeptides without TFA counter ion / MIC Staphylococcus aureus / MIC Staphylococcus aureus, lipopeptides without TFA counter ion: ATCC 25923, 18 h; for MBC Staphylococcus aureus: ATCC 25923, 24 h
Summary of the method: as §1

[11] = tested on: Staphylococcus epidermidis (PCM 2118); conditions: for MIC Staphylococcus epidermidis: PCM 2118, 18 h; for MBC Staphylococcus epidermidis: PCM 2118, 24 h
Summary of the method: as §1

[12] = tested on: Pseudomonas aeruginosa (ATCC 9027); conditions: ATCC 9027, 24 h
[13] = tested on: Proteus vulgaris (PCM 2668); conditions: 24 h
[14] = tested on: Candida albicans (ATCC 10231)
human red blood cells = conditions: 1 h
Procedure: The hemolytic activity of the lipopeptides was determined by exposing human red blood cells (4% v/v) to tested compounds at graded concentrations. Red blood cells were obtained from a healthy donor. EDTA was used to prevent the blood clotting. The plasma was removed via centrifugation and the erythrocytes were washed three times with PBS. The red blood cells were suspended in PBS and incubated with different concentrations of lipopeptides at 37°C for 1 h and centrifuged for 5 min at 1000 × g. The supernatants were transferred to a sterile 96-well plate and hemoglobin release was measured with an Epoch microplate spectrophotometer (BioTek, USA) by recording the absorbance at 550 nm. A 0.1% Triton X-100 solution was used as the positive control (100% of hemolysis) and pure PBS as the negative (0% of hemolysis). Minimum hemolytic concentration (MHC) was taken as the lowest concentration which induced 10% of hemolysis.

Row | Structure (SMILES) | MFC Aspergillus brasiliensis [1] [mg/L] | MIC Aspergillus brasiliensis [1] [mg/L] | MIC Bacillus subtillis [2] [mg/L] | MBC Bacillus subtillis [2] [mg/L] | MFC Candida albicans [3] [mg/L] | MIC Candida albicans [3] [mg/L] | MFC Candida tropicalis [4] [mg/L] | MIC Candida tropicalis [4] [mg/L] | MIC Enterococcus fecalis [5] [mg/L] | MBC Enterococcus fecalis [5] [mg/L] | MIC Escherichia coli [6] [mg/L] | MBC Escherichia coli [6] [mg/L] | MIC Klebsiella pneumoniae [7] [mg/L] | MBC Klebsiella pneumoniae [7] [mg/L] | MIC Pseudomonas aeruginosa [9] [mg/L] | MIC Staphylococcus aureus [10] [mg/L] | MBC Staphylococcus aureus [10] [mg/L] | MIC Staphylococcus epidermidis [11] [mg/L] | MBC Staphylococcus epidermidis [11] [mg/L] | MBC Pseudomonas aeruginosa [12] [mg/L] | also measured
1 | CCCCCCCCCCCCCCCC(=O)N[C@@H](CCCCN)C(=O)N[C@@H](CCCCN)C(=O)N[C@@H](CCCCN)C(=O)N[C@@H](CCCCN)C(N)=O [C16-KKKK-NH2] (Palmitoyl-KKKK-NH2) | 128 (≈ 167 µM) | 128 (≈ 167 µM) | 4 (≈ 5.21 µM) | 4 (≈ 5.21 µM) | 128 (≈ 167 µM) | 128 (≈ 167 µM) | 128 (≈ 167 µM) | 128 (≈ 167 µM) | 16 (≈ 20.8 µM) | 16 (≈ 20.8 µM) | 8 (≈ 10.4 µM) | 8 (≈ 10.4 µM) | 4 (≈ 5.21 µM) | 8 (≈ 10.4 µM) | 8 (≈ 10.4 µM) | 4 (≈ 5.21 µM) | 8 (≈ 10.4 µM) | 4 (≈ 5.21 µM) | 4 (≈ 5.21 µM) | 8 (≈ 10.4 µM) | MIC Candida albicans, lipopeptides without TFA counter ion [3]: 128 mg/L (≈ 167 µM); MBC Enterococcus fecalis, lipopeptides without TFA counter ion [5]: 8 mg/L (≈ 10.4 µM); MIC Enterococcus fecalis, lipopeptides without TFA counter ion [5]: 4 mg/L (≈ 5.21 µM); MBC Escherichia coli, lipopeptides without TFA counter ion [6]: 8 mg/L (≈ 10.4 µM); MIC Escherichia coli, lipopeptides without TFA counter ion [6]: 8 mg/L (≈ 10.4 µM); MBC Klebsiella pneumoniae, lipopeptides without TFA counter ion [7]: 4 mg/L (≈ 5.21 µM); MIC Klebsiella pneumoniae, lipopeptides without TFA counter ion [7]: 4 mg/L (≈ 5.21 µM); MIC Proteus vulgaris [8]: >512 mg/L; MBC Staphylococcus aureus, lipopeptides without TFA counter ion [10]: 4 mg/L (≈ 5.21 µM); MIC Staphylococcus aureus, lipopeptides without TFA counter ion [10]: 4 mg/L (≈ 5.21 µM); MBC Proteus vulgaris [13]: >512 mg/L; MFC Candida albicans, lipopeptides without TFA counter ion [14]: 128 mg/L (≈ 167 µM)
2 | CCCCCCCCCCCCCC(=O)N[C@@H](CCCCN)C(=O)NCC(N)=O [C14-KG-NH2] (Myristoyl-Lys-Gly-NH2) | 128 (≈ 310 µM) | 128 (≈ 310 µM) | 16 (≈ 38.8 µM) | 16 (≈ 38.8 µM) | 128 (≈ 310 µM) | 128 (≈ 310 µM) | 256 (≈ 620 µM) | 256 (≈ 620 µM) | 32 (≈ 77.6 µM) | 32 (≈ 77.6 µM) | 64 (≈ 155 µM) | 64 (≈ 155 µM) | 32 (≈ 77.6 µM) | 32 (≈ 77.6 µM) | 32 (≈ 77.6 µM) | 32 (≈ 77.6 µM) | 32 (≈ 77.6 µM) | 16 (≈ 38.8 µM) | 16 (≈ 38.8 µM) | 64 (≈ 155 µM) | MIC Candida albicans, lipopeptides without TFA counter ion [3]: 256 mg/L (≈ 620 µM); MBC Enterococcus fecalis, lipopeptides without TFA counter ion [5]: 32 mg/L (≈ 77.6 µM); MIC Enterococcus fecalis, lipopeptides without TFA counter ion [5]: 32 mg/L (≈ 77.6 µM); MBC Escherichia coli, lipopeptides without TFA counter ion [6]: 64 mg/L (≈ 155 µM); MIC Escherichia coli, lipopeptides without TFA counter ion [6]: 64 mg/L (≈ 155 µM); MBC Klebsiella pneumoniae, lipopeptides without TFA counter ion [7]: 64 mg/L (≈ 155 µM); MIC Klebsiella pneumoniae, lipopeptides without TFA counter ion [7]: 32 mg/L (≈ 77.6 µM); MIC Proteus vulgaris [8]: >512 mg/L; MBC Staphylococcus aureus, lipopeptides without TFA counter ion [10]: 32 mg/L (≈ 77.6 µM); MIC Staphylococcus aureus, lipopeptides without TFA counter ion [10]: 32 mg/L (≈ 77.6 µM); MBC Proteus vulgaris [13]: >512 mg/L; MFC Candida albicans, lipopeptides without TFA counter ion [14]: 256 mg/L (≈ 620 µM)
3 | CCCCCCCCCCCCCCCC(=O)N[C@@H](CCCCN)C(=O)N[C@@H](CCCCN)C(N)=O [C16-KK-NH2] | 128 (≈ 250 µM) | 128 (≈ 250 µM) | 4 (≈ 7.82 µM) | 4 (≈ 7.82 µM) | 128 (≈ 250 µM) | 128 (≈ 250 µM) | 128 (≈ 250 µM) | 128 (≈ 250 µM) | 8 (≈ 15.6 µM) | 8 (≈ 15.6 µM) | 8 (≈ 15.6 µM) | 8 (≈ 15.6 µM) | 16 (≈ 31.3 µM) | 16 (≈ 31.3 µM) | 8 (≈ 15.6 µM) | 8 (≈ 15.6 µM) | 8 (≈ 15.6 µM) | 4 (≈ 7.82 µM) | 4 (≈ 7.82 µM) | 8 (≈ 15.6 µM) | MIC Candida albicans, lipopeptides without TFA counter ion [3]: 256 mg/L (≈ 500 µM); MBC Enterococcus fecalis, lipopeptides without TFA counter ion [5]: 4 mg/L (≈ 7.82 µM); MIC Enterococcus fecalis, lipopeptides without TFA counter ion [5]: 4 mg/L (≈ 7.82 µM); MBC Escherichia coli, lipopeptides without TFA counter ion [6]: 4 mg/L (≈ 7.82 µM); MIC Escherichia coli, lipopeptides without TFA counter ion [6]: 4 mg/L (≈ 7.82 µM); MBC Klebsiella pneumoniae, lipopeptides without TFA counter ion [7]: 32 mg/L (≈ 62.5 µM); MIC Klebsiella pneumoniae, lipopeptides without TFA counter ion [7]: 16 mg/L (≈ 31.3 µM); MIC Proteus vulgaris [8]: >512 mg/L; MBC Staphylococcus aureus, lipopeptides without TFA counter ion [10]: 4 mg/L (≈ 7.82 µM); MIC Staphylococcus aureus, lipopeptides without TFA counter ion [10]: 4 mg/L (≈ 7.82 µM); MBC Proteus vulgaris [13]: >512 mg/L; MFC Candida albicans, lipopeptides without TFA counter ion [14]: 256 mg/L (≈ 500 µM)
4 | CCCCCCCCCCCC(=O)N[C@@H](CCCCN)C(=O)NCC(N)=O [C12-KG-NH2] (Lauroyl-Lys-Gly-NH2) | 512 (≈ 1330 µM) | 256 (≈ 666 µM) | 128 (≈ 333 µM) | 256 (≈ 666 µM) | 512 (≈ 1330 µM) | 512 (≈ 1330 µM) | 512 (≈ 1330 µM) | 512 (≈ 1330 µM) | 256 (≈ 666 µM) | 256 (≈ 666 µM) | 256 (≈ 666 µM) | 512 (≈ 1330 µM) | 256 (≈ 666 µM) | 512 (≈ 1330 µM) | 256 (≈ 666 µM) | 256 (≈ 666 µM) | 512 (≈ 1330 µM) | 128 (≈ 333 µM) | 128 (≈ 333 µM) | 512 (≈ 1330 µM) | MBC Proteus vulgaris ([8]; PCM 2668, TFA salt, subculture on Mueller-Hinton II Agar, 24 h 37°C, triplicate): >2000 mg/L; Hemolysis HC10 (MHC), concentration of lipopeptide inducing 10% of hemolysis (human red blood cells): 1000 µg/mL
